Measured values taken from patent US20080026992A1, “Tyrosine Phosphorylation of Cdk Inhibitor Proteins of the Cip/Kip Family” (priority 2003, published 2008).

How the values were obtained:
Type in all cases: cell-based, human
[1] = system: K562 cells; experiment: p27 protein level in K562 cells (Western blot); conditions: 2 or 10 μM STI-571 for 16 hours
Procedure: (§1) HA-tagged p27 was transfected in 293T cells with a Bcr-Abl or Lyn encoding plasmids. […] Equal amounts of cell lysates were analyzed by Western blotting with monoclonal anti-phospho-Y88 antibodies and HRP-conjugated anti-p27 antibodies as indicated. b. […] Western blot analysis was performed with monoclonal anti-phospho-Y88 and HRP-conjugated anti-p27 antibodies. c. […] Cells (1×10^7/ml) were labeled with a ^35S labeled methionine/cysteine mix for 1 hour, and subsequently incubated in the absence of radioactivity for the indicated times. p27 was immunoprecipitated using anti-p27 antibodies. The labeled protein was visualized by autoradiography. The intensity of the bands was determined using a PhosphorImager and is expressed as a fraction of the time point 0. […] One representative experiment is shown.
(§2) Tyr-88 phosphorylation of p27 in a Bcr-Abl transformed tumor cell line was investigated next. K562 chronic myelogenous leukaemia cells express p210 Bcr-Abl kinase that is sensitive to inhibition with ST-571.

[2] = system: K562 cells; experiment: p27 stability in K562 cells (35S pulse-chase); conditions: 10 μM STI-571 for 16 hours
Procedure: as §1, §2

[3] = system: Lyn; experiment: p27 Tyr-88 phosphorylation in 293T cells transfected with Lyn (Western blot, anti-phospho-Y88); conditions: 10 μM STI-571
Procedure: as §1

[4] = system: K562 cells; experiment: Cell cycle analysis by flow cytometry (BrdU/PI) of transfected K562 CML cells; conditions: moderate expression, 48 hours after transfection, GFP-sorted
Procedure: FIG. 9: p27 Y88F arrests K562 CML cells in G1 phase of the cell cycle. K562 CML cells were transfected with GFP and either 25 ug of p27 or 25 ug of p27-Y88F expression vector. 48 hours after transfection, cells with similar GFP expression level were isolated by flow cytometry cell sorting and the cell cycle distribution of these cells was determined using BrdU incorporation and PI staining. The distribution of these cells in the cell cycle phases is shown. Only p27-Y88F expression leads to an accumulation of G1 phase cells and reduced cells in S-phase.
The percentage of cells in the G1, S and G2/M phases of the cell cycle was determined by two dimensional flow cytometry. The DNA content was determined by staining DNA with the intercalating dye propidium iodide and quantifying the cell fractions with differing DNA content by flow cytometry. In addition, cells in S-phase were labelled with the nucleotide analog bromo 5-bromo-2′-deoxyuridine (BrdU), which is incorporated into newly synthesized DNA. […] Cells were analyzed on FACS ([…] Dickinson) flow cytometer using the CellQuest software. […]

Compound | p27 protein level [1] | p27 stability [2] | Tyr-88 phosphorylation of p27 by Lyn [3] | S-phase entry [4] | effect on cell cycle / accumulation of cells in G1 phase [4]
Cc1ccc(NC(=O)c2ccc(CN3CCN(C)CC3)cc2)cc1Nc1nccc(-c2cccnc2)n1 [STI-571, 4-[(4-Methyl-1-piperazinyl)methyl]-N-[4-methyl-3-[[4-(3-pyridinyl)-2-pyrimidinyl]amino]-phenyl] benzamide methane sulfonate] | dramatic increase | increase | no effect |  | 
p27-Y88F: mutant of p27 where tyrosine 88 is exchanged to phenylalanine |  |  |  | impaired | increasing cells accumulating in G1 phase
